Results on 19 molecules are retold here after patent publication US6509361B1, “1,5-Diaryl substituted pyrazoles as p38 kinase inhibitors” (Pharmacia Corporation, priority 2001, dated 2003).

Data set [1] relates to TNF-a (LPS-stimulated human peripheral blood mononuclear cells). As to the kind of experiment: TNF Cell Assay: LPS stimulation of human PBM cells, TNF-a by ELISA. To be noted: PBMC, LPS 20 ng/ml, overnight 37° C., compound 10-0.41 μM. Format: cell-based. The procedure:
Method of Isolation of Human Peripheral Blood Mononuclear Cells:
Human whole blood was collected in Vacutainer tubes containing EDTA as an anticoagulant. A blood sample (7 ml) was carefully layered over 5 ml PMN Cell Isolation Medium (Robbins Scientific) in a 15 ml round bottom centrifuge tube. The sample was centrifuged at 450-500×g for 30-35 minutes in a swing out rotor at room temperature. After centrifugation, the top band of cells were removed and washed 3 times with PBS w/o calcium or magnesium. The cells were centrifuged at 400×g for 10 minutes at room temperature. The cells were resuspended in Macrophage Serum Free Medium (Gibco BRL) at a concentration of 2 million cells/ml.
LPS Stimulation of Human PBMS:
PBM cells (0.1 ml, 2 million/ml) were co-incubated with 0.1 ml compound (10-0.41 μM, final concentration) for 1 hour in flat bottom 96 well microtiter plates. Compounds were dissolved in DMSO initially and diluted in TCM for a final concentration of 0.1% DMSO. LPS (Calbiochem, 20 ng/ml, final concentration) was then added at a volume of 0.010 ml. Cultures were incubated overnight at 37° C. Supernatants were then removed and tested by ELISA for TNF-a and IL1-b. Viability was analyzed using MTS. After 0.1 ml supernatant was collected, 0.020 ml MTS was added to remaining 0.1 ml cells. The cells were incubated at 37° C. for 2-4 hours, then the O.D. was measured at […].

The test system of data set [2] is TNF-α released by U937 cells (human histiocytic lymphoma cell line). As to the kind of experiment: U937 Cell Assay: LPS stimulation of TNF production by U937 cells, ELISA. To be noted: U-937, differentiated U937 cells, LPS 100 ng/ml, 4 hour incubation. Format: cell-based. The procedure: Maintenance and Differentiation of the U937 Human Histiocytic Lymphoma Cell Line:
U937 cells (ATCC) were propagated in RPMI 1640 containing 10% fetal bovine serum, 100 IU/ml penicillin, 100 μg/ml streptomycin, and 2 mM glutamine (Gibco). Fifty million cells in 100 ml media were induced to terminal monocytic differentiation by 24 hour incubation with 20 ng/ml phorbol 12-myristate 13-acetate (Sigma). The cells were washed by centrifugation (200×g for 5 min) and resuspended in 100 ml fresh medium. After 24-48 hours, the cells were harvested, centrifuged, and resuspended in culture medium at 2 million cells/ml.
LPS Stimulation of TNF Production by U937 Cells:
U937 cells (0.1 ml, 2 million/ml) were incubated with 0.1 ml compound (0.004-50 μM, final concentration) for 1 hour in 96 well microtiter plates. Compounds were prepared as 10 mM stock solutions in DMSO and diluted in culture medium to yield a final DMSO concentration of 0.1% in the cell assay. LPS (E. coli, 100 ng/ml final concentration) was then added at a volume of 0.02 ml. After 4 hour incubation at 37° C., the amount of TNF-α released in the culture medium was quantitated by ELISA. Inhibitory potency is expressed as IC50 (μM).

The target in the next data set is T1, human p38 kinase alpha (Homo sapiens, UniProt Q16539).
T1 construct: The coding region of the human p38a cDNA was obtained by PCR-amplification from RNA isolated from the human monocyte cell line THP.1; GST (N); made in house; host or cells: E. coli DH10B
Nature of the data set: p38 Kinase Assay (in vitro; PHAS-I/32P-ATP format or EGFRP/33P-ATP format). To be noted: activated human p38 kinase alpha, 50 μM unlabeled ATP; table does not say which of the two assay formats. Format: biochemical. The procedure:
The coding region of the human p38a cDNA was obtained by PCR-amplification from RNA isolated from the human monocyte cell line THP.1. First strand cDNA was synthesized from total RNA as follows: 2 μg of RNA was annealed to 100 ng of random hexamer primers in a 10 μl reaction by heating to 70° C. for 10 minutes followed by 2 minutes on ice. cDNA was then synthesized by adding 1 μl of RNAsin (Promega, Madison Wis.), 2 μl of 50 mM dNTP's, 4 μl of 5×buffer, 2 μl of 100 mM DTT and 1 μl (200 U) of Superscript II™ […] reverse transcriptase. Random primer, dNTP's and Superscript™ reagents were all purchased from Life-Technologies, Gaithersburg, Mass. The reaction was incubated at 42° C. for 1 hour. Amplification of p38 cDNA was performed by aliquoting 5 μl of the reverse transcriptase reaction into a 100 μl PCR reaction containing the following: 80 μl dH2O, 2 μl 50 mM dNTP's, 1 μl each of forward and reverse primers (50 pmol/μl), 10 μl of 10× buffer and 1 μl Expand™ polymerase (Boehringer Mannheim). The PCR primers incorporated Bam HI sites onto the 5′ and 3′ end of the amplified fragment, and were purchased from Genosys. The forward and reverse primers were 5′-[…]-3′ and 5′[…]-3′, respectively. The PCR amplification was carried out in a DNA Thermal Cycler (Perkin Elmer) by repeating 30 cycles of 94° C. for 1 minute, 60° C. for 1 minute and 68° C. for 2 minutes. After amplification, excess primers and unincorporated dNTP's were removed from the amplified fragment with a Wizard™ PCR prep (Promega) and digested with Bam HI (New England Biolabs). The Bam HI digested fragment was ligated into BamHI digested pGEX 2T plasmid DNA (PharmaciaBiotech) using T-4 DNA ligase (New England Biolabs) as described by T. Maniatis, Molecular Cloning: A Laboratory Manual, 2nd ed. (1989). The ligation reaction was transformed into chemically competent E. coli DH10B cells purchased from Life-Technologies following the manufacturer's instructions. Plasmid DNA was isolated from the resulting bacterial colonies using a Promega Wizard™ miniprep kit. Plasmids containing the appropriate Bam HI fragment were sequenced in a DNA Thermal Cycler (Perkin Elmer) with Prism™ (Applied Biosystems Inc.). cDNA clones were identified that coded for both human p38a isoforms (Lee et al. Nature 372, 739). One of the clones which contained the cDNA for p38a-2 (CSBP-2) inserted in the cloning site of pGEX 2T, 3′ of the GST coding region was designated pMON 35802. The sequence obtained for this clone is an exact match of the cDNA clone reported by Lee et al. This expression plasmid allows for the production of a GST-p38a fusion protein.
Expression of Human p38a:
GST/p38a fusion protein was expressed from the plasmid pMON 35802 in E. coli, stain DH10B (Life Technologies, Gibco-BRL). Overnight cultures were grown in Luria Broth (LB) containing […] ampicillin. The next day, 500 ml of fresh LB was inoculated with 10 ml of overnight culture, and grown in a 2 liter flask at 37° C. with constant shaking until the culture reached an absorbance of 0.8 at 600 nm. Expression of the fusion protein was induced by addition of isopropyl b-D-thiogalactosidse (IPTG) to a final concentration of 0.05 mM. The cultures were shaken for three hours at room temperature, and the cells were harvested by centrifugation. The cell pellets were stored frozen until protein purification.
Purification of p38 Kinase-α:
All chemicals were from Sigma Chemical Co. unless noted. Twenty grams of E. coli cell pellet collected from five 1 L shake flask fermentations was resuspended in a volume of PBS (140 mM NaCl, 2.7 mM KCl, 10 mM Na2HPO4, 1.8 mM KH2PO4, pH 7.3) up to 200 ml. The cell suspension was adjusted to 5 mM DTT with 2 M DTT and then split equally into five 50 ml Falcon conical tubes. The cells were sonnicated (Ultrasonics model W375) with a 1 cm probe for 3×1 minutes (pulsed) on ice. […]

A value given as a limit tells only on which side of the number the result lay.

T1 sequence (Q16539 whole entry): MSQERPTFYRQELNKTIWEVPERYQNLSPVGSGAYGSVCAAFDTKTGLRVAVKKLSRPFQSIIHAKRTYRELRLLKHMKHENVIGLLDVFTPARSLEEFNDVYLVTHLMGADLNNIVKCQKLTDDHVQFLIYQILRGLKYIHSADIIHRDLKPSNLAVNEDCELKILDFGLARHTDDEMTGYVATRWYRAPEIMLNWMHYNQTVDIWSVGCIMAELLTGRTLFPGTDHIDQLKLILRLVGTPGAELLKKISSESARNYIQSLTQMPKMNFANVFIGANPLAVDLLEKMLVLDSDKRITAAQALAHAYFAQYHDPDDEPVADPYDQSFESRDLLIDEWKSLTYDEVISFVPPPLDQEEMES

`Fc1ccc(-n2ncc(N3CCNCC3)c2-c2ccncc2)cc1` [Example 18]: the IC50 is above 10 µM in data set [1], at least 10 µM in data set [2] and 35.7 µM against human p38 kinase alpha.
In the case of `Cc1cccc(-n2nc(C)cc2-c2ccnc(N(C)C)c2)c1` [Example 35, 2-(Dimethylamino)-4-[1-(3-methylphenyl)-3-methyl-1H-pyrazol-5-yl]pyridine], the melting point is 84 to 85 °C. In data set [1], this molecule had a concentration for half-maximal inhibition (IC50) of 3.4 µM. Also, in data set [2], the IC50 was at least 10 µM. The molecule further returned an IC50 against human p38 kinase alpha of 1.15 µM.
With `Cc1cc(-c2ccnc(NCCO)c2)n(-c2ccc(Cl)cc2)n1` [Example 11], the melting point was 137.57 °C. Moreover, the IC50 in data set [1] is 0.1 µM. In addition, the IC50 in data set [2] is 0.48 µM. At human p38 kinase alpha, half-maximal inhibition (IC50) required 0.07 µM.
For the molecule `Cc1cccc(-n2ncc(C)c2-c2ccncc2)c1` [Example 3], the melting point stood at 141.77 °C. This molecule also gave an IC50 in data set [1] of 0.6 µM. In addition, in data set [2], the IC50 turned out to be 0.66 µM. At human p38 kinase alpha, this molecule had an IC50 of 4.9 µM.
Take `COc1cc(-c2cc(C)nn2-c2cccc(C)c2)ccn1` [Example 22, 2-Methoxy-4-[1-(3-methylphenyl)-3-methyl-1H-pyrazol-5-yl]pyridine]: the IC50 was 1.9 µM in data set [1], 1.31 µM in data set [2] and 0.079 µM against human p38 kinase alpha.
The molecule `Cc1cc(-c2ccnc(NCc3ccccc3)c2)n(-c2ccc(Cl)cc2)n1` [Example 12] displayed a melting point of 105.53 °C. Besides, the half-maximal inhibitory concentration (IC50) in data set [1] turned out to be 0.3 µM. Besides, in data set [2], the half-inhibitory concentration (IC50) stood at 0.2 µM. At human p38 kinase alpha, this molecule showed a concentration for half-maximal inhibition (IC50) of 0.003 µM.
On to `Fc1ccc(-n2nccc2-c2ccnc(Cl)c2)cc1` [Example 45, 2-Chloro-4-[1-(4-fluorophenyl)-1H-pyrazol-5-yl]pyridine], for which the IC50 in data set [1] is 8.1 µM; in data set [2] it was at least 10 µM; at human p38 kinase alpha it was 1.06 µM.
On the same counts, the results for `Cc1cc(-c2ccnc(NCCc3ccccc3)c2)n(-c2ccc(Cl)cc2)n1` [Example 13] are 0.1 µM, 0.86 µM and 0.05 µM.
On to `Cc1cc(-c2ccnc(Cl)c2)n(-c2cccc(F)c2)n1` [Example 46, 2-Chloro-4-[1-(3-fluorophenyl)-3-methyl-1H-pyrazol-5-yl]pyridine], for which the IC50 in data set [2] is above 10 µM; at human p38 kinase alpha, 67.7 µM.
For `Fc1ccc(-n2nccc2-c2ccnc(NCc3ccccc3)c2)cc1` [Example 29, 2-(Benzylamino)-4-[1-(4-fluorophenyl)-1H-pyrazol-5-yl]pyridine], the IC50 was 1.3 µM in data set [1], 0.24 µM in data set [2] and 0.129 µM on human p38 kinase alpha.
On to `O=C(O)c1cnn(-c2ccc(F)cc2)c1-c1ccncc1` [Example 43], for which the IC50 in data set [2] was at least 10 µM; at human p38 kinase alpha, 65.1 µM.
Consider `Cc1cccc(-n2nc(C)cc2-c2ccnc(NCCO)c2)c1` [Example 26, 2-(2-Hydroxyethylamino)-4-[1-(3-methylphenyl)-3-methyl-1H-pyrazol-5-yl]pyridine], for which the IC50 in data set [1] amounted to 0.1 µM; in data set [2], 0.21 µM; at human p38 kinase alpha, 0.156 µM.
The molecule `NC(=O)c1cnn(-c2ccc(F)cc2)c1-c1ccncc1` [Example 16, 1-(4-Fluorophenyl)-5-(4-pyridinyl)-1H-pyrazole-4-carboxamide] returned a melting point of 215 to 216 °C. The IC50 in data set [1] was above 10 µM. The 50% inhibitory concentration (IC50) in data set [2] was above 10 µM. Further, at human p38 kinase alpha, the IC50 worked out at 7.72 µM.
With `Cc1cccc(-n2nc(C)cc2-c2ccnc(C#N)c2)c1` [Example 31, 2-Cyano-4-[1-(3-methylphenyl)-3 methyl-1H-pyrazol-5-yl]pyridine], the melting point was 128 to 130 °C. For the same molecule, the IC50 in data set [1] turned out to be 1.7 µM. In addition, the IC50 in data set [2] came out at 1.65 µM. Moreover, on human p38 kinase alpha, the IC50 was 0.5 µM.
On the same counts, the results for `Cc1cc(-c2ccnc(C#N)c2)n(-c2ccc(F)cc2)n1` [Example 32, 2-Cyano-4-[1-(4-fluorophenyl)-3-methyl-1H-pyrazol-5-yl]pyridine] are 94 to 95 °C, above 10 µM, above 10 µM and 2.97 µM.
As to `O=C(c1cnn(-c2ccc(F)cc2)c1-c1ccncc1)N1CCNCC1` [Example 17], the results for the concentration for half-maximal inhibition (IC50) (in data set [1]; in data set [2]; against human p38 kinase alpha) were above 10 µM, at least 10 µM and 65.1 µM, respectively.
For the molecule `Cc1cccc(-n2nc(C)cc2-c2ccnc(OCc3ccccc3)c2)c1` [Example 28, 2-Bezyloxy-4-[1-(3-methylphenyl)-3-methyl-1H-pyrazol-5-yl]pyridine], the figures for the IC50 (in data set [1]; in data set [2]; against human p38 kinase alpha) were above 10 µM, 2.64 µM and 0.843 µM, respectively.
Turning to `CCNc1cc(-c2ccncc2)n(-c2ccc(F)cc2)n1` [Example 15], the IC50 in data set [1] is above 10 µM; in data set [2], at least 10 µM; on human p38 kinase alpha, above 100 µM.
As for `Cc1cccc(-n2nc(C)cc2-c2ccnc(N(C)Cc3ccccc3)c2)c1` [Example 27, 2-(N-Methylbenzylamino)-4-[1-(3-methylphenyl)-3-methyl-1H-pyrazol-5-yl]pyridine], the IC50 in data set [1] was above 10 µM; in data set [2] it was at least 10 µM; against human p38 kinase alpha, above 100 µM.
